This is an account of results in US20080226718A1, “Indole and Azaindole Derivatives For the Treatment of Inflammatory and Autoimmune Diseases” (Brane Discovery S.r.l, priority 2005, published 2008).

Each structure is given as a SMILES string.

The subject of assay [1] is encephalitogenic lymphocytes. Briefly: Spontaneous adhesion of encephalitogenic T cells on purified ICAM-1. As to conditions: Mus musculus, Lymphocyte, 1 h; for inhibition at 5 µM: [cpd] 5 μM, read-out: Inhibition of Spontaneous Adhesion in encephalitogenic lymphocytes (% of control/non-treated cells) ICAM-1; for inhibition at 10 µM: [cpd] 10 μM; for inhibition at 10 µM / inhibition at 50 µM: read-out: Inhibition of Spontaneous Adhesion in encephalitogenic lymphocytes (% of control/non-treated cells) ICAM-1 (converted); for inhibition at 50 µM: [cpd] 50 μM. It is filed as cell-based, SJL mice. The protocol: Spontaneous adhesion of encephalitogenic lymphocytes was measured in adhesion assays on purified ICAM-1 and VCAM-1 as previously described (Constantin G. et al., J. Immunol. 162, 1144-1149, 1999). Autoreactive T cells were obtained from SJL mice immunized with PLP139-151 as described (Piccio L. et al., J. Immunol. 168, 1940-1949, 2002). Lymphocytes were treated with test compound at concentrations between 5-100 μM for 1 h, while control/untreated cells were treated with vehicle (DMSO). Results are expressed as percentage of inhibition over control (=100%) ±S.D and are the mean of three-four experiments.
ICAM-1 and VCAM-1 are adhesion molecules from the family of immunoglobulins and control the migration of lymphocytes through the endothelium during inflammatory responses. Encephalitogenic T cells are activated lymphocytes displaying spontaneous adhesion on ICAM-1 and VCAM-1 and have increased migration capacities in inflammation sites. Spontaneous adhesion of encephalitogenic lymphocytes was measured in adhesion assays on purified ICAM-1 and VCAM-1 as described in the method.

Assay [2] deals with PMNs. Briefly: Chemokine-induced rapid adhesion of PMNs to fibrinogen (fMLP). It is filed as cell-based. As to conditions: Homo sapiens, 2 min, fMLP 100 nM; for inhibition at 10 µM: [cpd] 10 μM; for inhibition at 25 µM: [cpd] 25 μM; for inhibition at 50 µM: [cpd] 50 μM. The protocol: (§1) Adhesion was performed on purified integrin ligands and was evaluated as reported in Constantin G. et al., Immunity, 16, 759-769, 2000. Briefly, primary naïve lymphocytes, polymorphonuclear neutrophils (PMNs) or monocytes were isolated form healthy donors. In other experiments, murine autoreactive T cells were obtained from SJL mice immunized with PLP139-151 as described (Piccio L. et al., J. Immunol, 168, 1940-1949, 2002). Cells were resuspended at 4×10^6/ml in PBS, CaCl2, MgCl2 1 mM, 10% FCS, pH 7.2. Adhesion assays were performed on eighteen well glass slides coated overnight at 4° C. with ligands for CR3 (fibrinogen) or LFA-1 (ICAM-1). 20 μl of cell suspension were added to the wells and stimulated at 37° C. with 5 μl of agonists prior to washing, fixation and computer-assisted enumeration of bound cells.
(§2) Integrin activation was measured as induction of rapid adhesion triggered by the classical chemoattractant N-formyl-L-methionyl-L-leucyl-phenylalanine (fMLP) (100 nM) or by the CC chemokine MIP3β (CCL19, 1 μM). PMNs and monocytes were triggered to adhere to fibrinogen (CR3 ligand); naive human lymphocytes or murine encephalitogenic T cells were triggered to adhere to ICAM-1 (LFA-1 ligand). Triggered adhesion was evaluated after 2 min of stimulation under static conditions. The cells were pretreated at 37° C. for 30-60 min with the indicated concentrations of the test compound. Results are expressed as percentage of inhibition over control (=100%) and are the mean of three experiments in the case of human leukocytes. Results are expressed as mean counts and are the mean counts ±S.D of three experiments and are the mean of three experiments in the case of murine encephalitogenic lymphocytes.
(§3) Integrin activation was measured as induction of rapid adhesion triggered by the “classical” chemoattractant fMLP (100 nM) or by the CC chemokine MIP3β (CCL19, 1 μM). PMNs were triggered to adhere to fibrinogen (CR3 ligand); lymphocytes were triggered to adhere to ICAM-1 (LFA-1 ligand).

For assay [3], the system named is monocytes. Briefly: Chemotaxis assay, monocytes (fMLP). It is filed as cell-based. As to conditions: Homo sapiens, Monocyte, fMLP 10 nM, 2 h; for inhibition at 10 µM: [cpd] 10 μM; for inhibition at 25 µM: [cpd] 25 μM; for inhibition at 50 µM: [cpd] 50 μM. The protocol: (§4) PMNs and monocytes migration was assessed using 1 or 3-μm pore size transwells (Bio-Coat Becton-Dickinson), while lymphocytes by using 5-elm pore size transwells.
(§5) Cells were in RPMI1640, containing 10% heat-inactivated Fetal Calf Serum (FCS) and 20 mM HEPES, pH 7.3, at 2×10^6/ml. 100 μl of cell suspension were added to the top well, and 600 μl of medium, containing chemoattractants and test compound, were added to the bottom well. Migration was evaluated after 2 h for PMNs and monocytes and after 4 h for lymphocytes. fMLP 10 nM (PMNs and monocytes) and MIP-3β 100 nM (lymphocytes) were utilized as chemoattractants. After fixation with 1.5% glutaraldehyde, migrated cells were counted by fluorescence-activated celli sorting using polystyrene beads (Polyscience) as an internal standard (Campbell J. J. et al. J. Cell. Biol. 134, 255-266, 1996; Laudanna C. et al. J. Biol. Chem. 273,46, 30306-30315, 1998).
(§6) Results are expressed as percentage of inhibition over control (=100%), and are the mean of three experiments.

For assay [4], the system named is monocytes. Briefly: Chemokine-induced rapid adhesion of monocytes to fibrinogen (fMLP). It is filed as cell-based. As to conditions: Homo sapiens, Monocyte, fMLP 100 nM; for inhibition at 10 µM: [cpd] 10 μM; for inhibition at 25 µM: [cpd] 25 μM; for inhibition at 50 µM: [cpd] 50 μM. As to the method:
as §1, §2

Assay [5] concerns lymphocytes. As to the kind of experiment: Chemotaxis assay, lymphocytes (MIP-3β). It counts as cell-based. As to conditions: Homo sapiens, Lymphocyte, MIP-3β 100 nM, 4 h; for inhibition at 10 µM: [cpd] 10 μM, read-out: Inhibition of Chemotaxis (%) Lymphocytes (MIP3-β); for inhibition at 25 µM: [cpd] 25 μM; for inhibition at 25 µM / inhibition at 50 µM: read-out: Inhibition of Chemotaxis (%) Lymphocytes (MIP3-β) (converted); for inhibition at 50 µM: [cpd] 50 μM. As to the method:
as §4, §5, §6

For assay [6], the system named is lymphocytes. As to the kind of experiment: Chemokine-induced rapid adhesion of lymphocytes to ICAM-1 (MIP3β). It is filed as cell-based. Conditions: Homo sapiens, Lymphocyte, MIP3β 1 μM; for inhibition at 10 µM: [cpd] 10 μM, read-out: Inhibition of Adhesion (%) Lymphocytes (MIP3-β); for inhibition at 25 µM: [cpd] 25 μM; for inhibition at 25 µM / inhibition at 50 µM: read-out: Inhibition of Adhesion (%) Lymphocytes (MIP3-β) (converted); for inhibition at 50 µM: [cpd] 50 μM. As to the method: as §1, §2, §3

For assay [7], the system named is PMNs. Briefly: Chemotaxis assay, PMNs (fMLP). Conditions: Homo sapiens, fMLP 10 nM, 2 h; for inhibition at 10 µM: [cpd] 10 μM; for inhibition at 25 µM: [cpd] 25 μM; for inhibition at 50 µM: [cpd] 50 μM. It counts as cell-based. As to the method: as §4, §5, §6
The subject of assay [8] is encephalitogenic lymphocytes. As to the kind of experiment: Chemokine-induced adhesion of murine encephalitogenic T cells to ICAM-1. It is filed as cell-based, SJL mice. As to conditions: ICAM-1; for Chemokine-induced Adhesion in encephalitogenic lymphocytes, Mean counts ± S.D., in presence of MIP3-β stimulation: 1 μM CCL19 (MIP-3beta). As to the method: as §1, §2
Chemokines trigger rapid arrest of lymphocytes in blood vessels through pertussis toxin-sensitive G protein coupled receptors. Rapid adhesion to purified ICAM-1 was measured in in vitro adhesion assays using control/untreated cells and lymphocytes treated with concentration between 5-50 μM for 1 h. Autoreactive lymphocytes were then stimulated with 1 μM CCL19 (MIP-3beta) for 3 min. […] These compounds were already efficient in blocking adhesion using a concentration of 5 μM for the cell treatment.

For the compound `CCOC(=O)CCc1[nH]c2cc(OC)c(OC)cc2c1-c1ccc(OC)cc1` [Example 22], the inhibition at 5 µM in assay [1] was 39.9%. Also, the inhibition at 10 µM in assay [1] was 61.3%; in assay [2], 2.6%; in assay [3], 23.7%; in assay [4], 9.5%; in assay [5], 47.9%; in assay [6], 65%. The inhibition at 10 µM in assay [7] is 56.9%. In addition, the inhibition at 50 µM is 94.7% in assay [1]; 32.6% in assay [2]; 96.4% in assay [3]; 42.6% in assay [4]; 94.7% in assay [5]; 97.1% in assay [6]. Moreover, the inhibition at 50 µM in assay [7] is 97.8%. Also, the inhibition at 25 µM in assay [2] was 13.8%; in assay [3] it was 80.1%; in assay [4] it was 29.6%; in assay [5] it was 84.6%; in assay [6], 95.6%; in assay [7], 88.7%. Moreover, the “Chemokine-induced Adhesion in encephalitogenic lymphocytes, Mean counts ± S.D., in presence of MIP3-β stimulation” value in assay [8] ([cpd] 10 μM) came to 74.1 ± 6.4; in assay [8] ([cpd] 50 μM), 48.0 ± 6.4. Further, the “Adhesion in encephalitogenic lymphocytes, Mean counts ± S.D., in absence of MIP3-β stimulation” value in assay [8] ([cpd] 10 μM) was found to be 44.2 ± 5.7.
On to `CNC(=O)c1[nH]c2cc(OC)c(OC)cc2c1-c1ccccc1` [Example 48], for which the inhibition at 5 µM in assay [1] was found to be 37.5%. Besides, the inhibition at 10 µM in assay [1] was 65.6%; in assay [2], 18%; in assay [3], 71.7%; in assay [4], 7.5%; in assay [5], 48.9%; in assay [6] it was 53.7%. Also, the inhibition at 10 µM in assay [7] came out at 82.4%. Further, the inhibition at 50 µM in assay [1] is 95.6%; in assay [2] it was 53.7%; in assay [3], 96.5%; in assay [4] it was 31.7%; in assay [5] it was 94.9%; in assay [6] it was 91.5%. In addition, the inhibition at 50 µM in assay [7] is 96.4%. The inhibition at 25 µM in assay [2] was 48.9%; in assay [3], 90.4%; in assay [4], 22.5%; in assay [5], 77.3%; in assay [6] it was 77.3%; in assay [7], 87.8%.
In the case of `COc1ccc(-c2c3n(c4cc(OC)c(OC)cc24)CC(=O)NC3)cc1` [Example 66], the inhibition at 5 µM in assay [1] amounted to 15%. Also, the inhibition at 10 µM in assay [1] is 33.7%; in assay [2] it was 6.1%; in assay [3], 43.9%; in assay [4], 11.3%; in assay [5], 57.5%; in assay [6], 61.3%. The inhibition at 10 µM in assay [7] amounted to 50%. The inhibition at 50 µM was 92.9% in assay [1]; 17.2% in assay [2]; 92.7% in assay [3]; 40.4% in assay [4]; 87.7% in assay [5]; 79% in assay [6]. The compound further had an inhibition at 50 µM in assay [7] of 92.6%. Also, the inhibition at 25 µM in assay [2] was 11.5%; in assay [3] it was 74.4%; in assay [4], 28.7%; in assay [5] it was 89.6%; in assay [6] it was 68.1%; in assay [7], 77.8%.
On to `COc1ccc(-c2c(-c3nnc(C)o3)[nH]c3cc(OC)c(OC)cc23)cc1` [Example 77], for which, in assay [1], the inhibition at 5 µM was 25.9%. The inhibition at 10 µM in assay [1] is 34.8%; in assay [2] it was 17.4%; in assay [3], 40.6%; in assay [4], 3.5%; in assay [5] it was 13.6%; in assay [6], 15.9%. The inhibition at 10 µM in assay [7] was 51.3%. The inhibition at 50 µM in assay [1] was 95.9%; in assay [2] it was 30.5%; in assay [3], 59%; in assay [4], 50.8%; in assay [5] it was 33.8%; in assay [6], 30.5%. Also, the inhibition at 50 µM in assay [7] was 59.5%. Further, the inhibition at 25 µM in assay [2] was 24.7%; in assay [3], 48.9%; in assay [4] it was 33.4%; in assay [5], 25.4%; in assay [6], 20.7%; in assay [7], 49.4%.
